# Data reported in patent US20250340941A1, “ASSAY AND METHODS FOR DRUG DISCOVERY” (BIOVIE INC., priority 2023, published 2025).
# What was measured:
# [1] = Phase 3 trial (NM101, NCT04669028): metabolic changes, blinded assessment; format: in vivo, human
# Excerpt: In this example, the clinical outcomes from a Phase 3, randomized, placebo-controlled trial of NE3107 (17α-ethynylandrost-5-ene-3ϕ3,7ϕ3,17ϕ3-triol) in subjects with mild to moderate probable Alzheimer's disease.
# Recently, the roles of inflammation and insulin resistance in neurodegeneration have become better appreciated. […] We describe the rationale and design of NM101, the first randomized, multicenter Phase III clinical study to examine the safety and efficacy of 30-week treatment with NE3107 versus placebo in elderly adults with mild-to-moderate Alzheimer's disease. Patients (316) will be randomized in a 1:1 ratio. The co-primary end points measure cognitive function and functional and behavioral characteristics (Clinical Dementia Rating Scale Sum of Boxes, CDR-SB) and cognitive function (ADAS Cog12). Trial registration number: NCT04669028 (Clinicaltrials.gov).
# Subjects metabolic and correlation changes were analyzed. Many of the genes associated with LOAD (late onset Alzheimer's disease) are related to cholesterol metabolism, which is decreased in AD neuron membranes. Insulin and glycemic controls are known to be involved in neurodegeneration. […] Increased mean amplitude of glycemic excursion (MAGE from CGM) increased risk of Alzheimer's disease progression. Leptin is an anti-inflammatory, neuroprotective and is decreased in AD. […] The results are described in Tables 4 and 5.
# [2] = Phase 3 trial: neuropsychiatric inventory; format: in vivo, human; conditions: Phase 3, blinded analysis (NE3107 and placebo not separated)
# Protocol: Subjects were analyzed for neuropsychiatric inventory. […] An improvement in appetite was also correlated with decreased Cog12, CDR SB and ADCOMS, with increased Alzheimer's disease. A decrease in anxiety was correlated with an increase ADL and decreased CGIC. Sleep improvement was correlated with a decrease in CGIC and decreased in TNFa. The results are described in Table 8 and FIGS. 6A-6B.
# [3] = Phase 3 trial: FDG-PET imaging; format: in vivo, human; conditions: Phase 3, blinded analysis; subjects with a baseline whole cortex suvr <1.29, n/N
# Protocol: Subjects were analyzed using a fluorodeoxyglucose (FDG)-positron emission tomography (PET) imaging scans. FDG-PET standardized uptake value ratios (“suvr”) were increased in 14/24 subjects with a baseline whole cortex suvr <1.29. […] Cholesterol increases trended with increased Cingulate suvr. The results are described in Table 7 and FIG. 5.
# Monocytes = assay: Blood monocyte frequency, 3-month open-label phase 2 study; format: in vivo, human
# Protocol: (§1) Result: The subject's SkinBloodAge clock closely matched their chronological age at baseline (mean 71.5 vs 70.8 years). After 3 months of NE3107 (20 mg BID), the SkinBloodAge decreased by a mean of 3.3 years (Table). […] Leptin is reportedly lower in AD, and DNAmLeptin is reported to be positively correlated with metabolic parameters waist/hip ratio, BMI, CRP, insulin, glucose and triglycerides (Lu 2022 Aging 14:9884). […] DNAmPack Years is reported to be negatively correlated with time to mortality in both smokers and nonsmokers, and positively correlated with waist/hip ratio, CRP and triglycerides. Monocyte DNAm was correlated with monocyte frequency at baseline, and although it is reported to increases with chronological age, it decreased (−29%) in 77% of subjects after 3 months treatment. […]
# [4] = tested on: TNFR1 phosphorylation in THP-1 human monocytes; assay: TNFa-stimulated TNFR1 ERK-dependent phosphorylation, Western blot densitometry; format: cell-based; conditions: THP-1, TNFa 50 ng/mL
# Protocol: THP-1 monocytes were treated with 100 nM NE3107, 1 uM IKK-16 (IKK inhibitor), 1 uM Tpl2 Kinase inhibitor (TPL2i) or Vehicle (0.1% DMSO) and stimulated with TNFa 50 ng/mL. Cell lysates were collected at 0, 2, 5, 10, 15, and 30 minutes. The results are given as fold change with respect to the control following Western blotting and quantification of band intensities by densitometry scanning.
# THP-1 human monocytes were grown in complete growth medium (ATCC-formulated RPMI-1640 Medium, Catalog No. 30-2001), 2-mercaptoethanol to a final concentration of 0.05 mM and fetal bovine serum to final concentration of 10%. THP-1 human monocytes were then seeded into 10 mL complete growth medium at 0.4×10^6/mL in a T25 flask and were grown to 0.8×10^6/mL in about 1 to 2 days. The cells were then starved in 0.5% FBS RPMI for 16 h. The THP-1 monocytes were then treated with 100 nM 17α-ethynylandrost-5-ene-3ϕ3,7ϕ3,17ϕ3-triol (NE3107), 1 μM IKK-16 (IKK inhibitor), 1 μM Tpl2 Kinase inhibitor (TPL2i) or 0.1% DMSO (vehicle). Cells were stimulated with stimulated with 50 ng/mL TNFa and cell lysates were collected at 0, 2, 5, 10, 15, and 30 minutes after TNFa stimulation. Total cell lysates were subjected to Western blotting as described in Lu et al., Mol. Endocrinol. 22 (2008), 760-771. Relative band intensities were quantified by densitometry scanning. The results are given as fold change with respect to untreated cells in Table 2.
# [5] = Phase 3 trial: imaging sub-study vMRI; format: in vivo, human; conditions: Phase 3 imaging sub-study, 23 subjects, blinded analysis; result in words
# Protocol: Subjects were analyzed using imaging sub-studies vMRI on 23 subjects. It was observed that the volume was increased in the hippocampus and amygdala. In addition, it was observed that a decreased CGIC was correlated with decreased hippocampi volume and increased MCP-1 was correlated with increased whole cortex. The results are described in FIGS. 4A-4B and Table 6.
# [6] = tested on: Horvath Clock DNA methylation (DNAm); assay: Horvath Clock DNA methylation (DNAm) epigenetic analysis of whole blood, 3-month open-label phase 2 study (NCT05007820); format: in vivo, human
# Excerpt: NE3107 is an oral small molecule, blood-brain permeable anti-inflammatory insulin sensitizer that binds ERK, inhibits NFKB and TNF signaling, and is in clinical studies for Probable AD (NCT04669028) and Parkinson's disease (NCT05083260). Safety, clinical, biomarker and neuroimaging results from a 3-month open-label phase 2 study of NE3107 treatment of MCI and probable AD (NCT05007820) were reported at CTAD (2022 J. Prev. Alzheimers Dis 9 S86, S140 and S27). In this example, the inventors determined the results of epigenetic clock studies from NCT05007820.
# Methods: Subjects with clinical dementia rating (CDR) 0.5-1 were consented, and whole blood was drawn, frozen and shipped for Horvath Clock DNA methylation (DNAm) epigenetic analysis (Horvath 2018 Aging 10:1758) at baseline and 3 months.
# as §1
# [7] = Phase 3 trial: adverse events; format: in vivo, human; conditions: blinded (IP or placebo not known)
# Excerpt: Of the 439 subjects enrolled in the study, 156 experienced 1 or more AEs (35.5%). There were only 43 (9.8%) related AEs with the majority 42 […] categorized as non-serious AEs by the principal investigator. The study also had very low rate of serious AEs reported. There were 12 (2.7%) reported for the duration of the study. […] As this is a blinded analysis it is not known if the subjects was on IP or placebo.
# [8] = Phase 3, blinded analysis (NE3107 and placebo not separated)
# [9] = Phase 3, blinded analysis, result in words
# [10] = After 3 months of NE3107 (20 mg BID), result in words
# [11] = NE3107 20 mg BID, 3 months vs baseline
# [12] = NE3107 20 mg BID, 3 months vs baseline, mean
# [13] = NE3107 20 mg BID, 3 months, mean
# [14] = After 3 months of NE3107 (20 mg BID), size of decrease
# [15] = Blood Cell Frequency, 3 months vs baseline, mean
# [16] = Blood Cell Frequency, NE3107 20 mg BID, 3 months, mean
# [17] = NE3107 20 mg BID, 3 months, n/N subjects
structure (smiles),measurement,setting,value
"C#C[C@]1(O)CC[C@H]2[C@@H]3[C@@H](O)C=C4C[C@@H](O)CC[C@]4(C)[C@H]3CC[C@@]21C [NE3107, 17α-ethynylandrost-5-ene-3ϕ3,7ϕ3,17ϕ3-triol]","HOMA2-% B, Change from Baseline",[1]; [8],"+13.5%, *"
same,"HOMA2-% S, Change from Baseline",[1]; [8],"−21.2%, *"
same,"Insulin, Change from Baseline",[1]; [8],+1.9 μIU/mL
same,"Leptin, V10 median",[1]; [8],29.2 ng/mL
same,"MAGE, Change from Baseline","[1]; Phase 3, blinded analysis (NE3107 and placebo not separated), from CGM",-0.57 mg/dL
same,Leptin DNAm,[1]; [9],observed to increase
same,cases of hypoglycemia,[1]; [9],no cases of hypoglycemia
same,"Cholesterol, Change from Baseline","[1]; Phase 3, mild to moderate probable AD, blinded analysis (NE3107 and placebo subjects not separated)",+3.0 mg/dL
same,neuropsychiatric inventory: overall improvement in appetite,[2],−1.0
same,neuropsychiatric inventory: overall improvement in sleep,[2],−1.0
same,subjects with increased FDG-PET standardized uptake value ratios (suvr),[3],14/24
same,change in monocyte frequency,Monocytes; [10],no significant change
same,"Monocytes, Change (%)",Monocytes; [11],(1.5%)
same,"Monocytes, Change",Monocytes; [12],−0.001 Freq
same,"Monocytes, 3 Months",Monocytes; [13],0.085 Freq
same,Fold vs DMSO control P-TNFR1/Actin in Gel2,"[4]; 100 nM, 0 min",0.32 fold
same,Fold vs DMSO control P-TNFR1/TNFR1 in Gel2,"[4]; 100 nM, 0 min",0.27 fold
same,Fold vs DMSO control P-TNFR1/Actin in Gel2,"[4]; 100 nM, 15 min",0.79 fold
same,Fold vs DMSO control P-TNFR1/TNFR1 in Gel2,"[4]; 100 nM, 15 min",0.57 fold
same,Fold vs DMSO control P-TNFR1/Actin in Gel2,"[4]; 100 nM, 30 min",0.23 fold
same,Fold vs DMSO control P-TNFR1/TNFR1 in Gel2,"[4]; 100 nM, 30 min",0.17 fold
same,vMRI volume in the hippocampus and amygdala,[5],increased
same,"DNAmCD4Tcell, Change (%)",[6]; 3 months vs baseline,(18%)
same,"DNAmCD8Tcell, Change (%)",[6]; 3 months vs baseline,(12%)
same,"DNAmGranulocyte, Change (%)",[6]; 3 months vs baseline,(2.2%)
same,"DNAmNKcell, Change (%)",[6]; 3 months vs baseline,(0.5%)
same,"changes in DNAmT, DNAmNK or DNAmGran",[6]; [10],no significant changes
same,DNAmPackYears decreased by,[6]; [14],39%
same,SkinBloodAge decreased by a mean of,[6]; [14],3.3 years
same,"DNAmCD4Tcell, Change",[6]; [15],−0.033
same,"DNAmCD8Tcell, Change",[6]; [15],−0.002
same,"DNAmGranulocyte, Change",[6]; [15],−0.015
same,"DNAmNKcell, Change",[6]; [15],−0.0003
same,"DNAmCD4Tcell, 3 Months",[6]; [16],0.152
same,"DNAmCD8Tcell, 3 Months",[6]; [16],0.013
same,"DNAmGranulocyte, 3 Months",[6]; [16],0.653
same,"DNAmNKcell, 3 Months",[6]; [16],0.063
same,"DNAmPackYears, Change (%)",[6]; [11],(39%)
same,"DNAmSkinBlood, Change (%)",[6]; [11],(−4.6%)
same,"DNAmMonocytes, Change",[6]; [12],−0.022 Freq
same,"DNAmPackYears, Change",[6]; [12],−9.4
same,"DNAmSkinBlood, Change",[6]; [12],−3.3 years
same,"DNAmSkinBlood, 3 Months","[6]; NE3107 20 mg BID, 3 months, MCI/probable AD subjects (CDR 0.5-1), whole blood, mean",67.5 years
same,"DNAmMonocytes, 3 Months",[6]; [13],0.054 Freq
same,"DNAmPackYears, 3 Months",[6]; [13],14.6
same,"DNAmLeptin, Frequency (subjects with decrease)",[6]; [17],22/22
same,"DNAmMonocytes, Frequency (subjects with decrease)",[6]; [17],17/22
same,"DNAmPackYears, Frequency (subjects with decrease)",[6]; [17],21/22
same,"DNAmSkinBlood, Frequency (subjects with decrease)",[6]; [17],19/22
same,related AEs,"[7]; Phase 3, 439 subjects enrolled",9.8%
same,related AEs categorized as non-serious,"[7]; Phase 3, 439 subjects enrolled",0.6%
same,serious AEs reported,"[7]; Phase 3, 439 subjects enrolled",2.7%
same,subjects discontinued due to a reported AE,"[7]; Phase 3, 439 subjects enrolled",1.8%
same,subjects who experienced 1 or more AEs,"[7]; Phase 3, 439 subjects enrolled",35.5%
same,serious AEs that resulted in death,"[7]; Phase 3, count",1
"O=C(c1ccc(Nc2nccc(-c3cc4ccccc4s3)n2)cc1)N1CCC(N2CCCC2)CC1 [IKKi, IKK-16, reference compound]",Fold vs DMSO control P-TNFR1/Actin in Gel2,"[4]; 1 μM, 0 min",2.09 fold
same,Fold vs DMSO control P-TNFR1/TNFR1 in Gel2,"[4]; 1 μM, 0 min",2.92 fold
same,Fold vs DMSO control P-TNFR1/Actin in Gel2,"[4]; 1 μM, 15 min",0.92 fold
same,Fold vs DMSO control P-TNFR1/TNFR1 in Gel2,"[4]; 1 μM, 15 min",0.59 fold
same,Fold vs DMSO control P-TNFR1/Actin in Gel2,"[4]; 1 μM, 30 min",0.49 fold
same,Fold vs DMSO control P-TNFR1/TNFR1 in Gel2,"[4]; 1 μM, 30 min",0.30 fold
